How the values were obtained:
[1] = test system: ZEAMX (Corn, Field); assay: Postemergence herbicidal evaluation; type: in vivo, Zea mays; settings: postemergence
Procedure, shortened: (§1)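 Seedlings grown about two weeks were sprayed at 40 psi with compound dispersed in 50/50 acetone/water plus 0.5% TWEEN 20, at about 0.0156 to 0.500 kg/ha. Plants were kept in the greenhouse and scored 4–5 weeks later on a 0–9 visual scale against untreated controls.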

[2] = test system: SAGPY (Arrowhead (Pygmaea)); assay: Postemergence weed control under flooded paddy conditions; type: in vivo, Sagittaria pygmaea; settings: postemergence weeds, 3-4 weeks after treatment
Procedure, shortened: (§2)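 Weeds 3 to 5 cm tall and rice seedlings at the 1.5 to 2.5 leaf stage were flooded, with water held 1.5 to 3 cm above the soil. Compounds in 50/50 v/v aqueous/acetone went into the flood water at about 0.0313 to 0.500 kg/ha. Visual 0-9 ratings versus control were made 3 to 4 weeks later.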

[3] = test system: GALAP (Galium); assay: Postemergence herbicidal evaluation; type: in vivo, Galium aparine; settings: postemergence
Procedure, shortened: as §1

[4] = test system: AMBEL (Ragweed, Common); assay: Preemergence herbicidal evaluation; type: in vivo, Ambrosia artemisifolia; settings: rated 4-5 weeks after treatment
Procedure, shortened: (§3)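 In this greenhouse assay, monocot and dicot seeds are planted in soil and treated prior to emergence with an aqueous acetone spray (about 0.0156-0.500 kg/ha). Plants are assessed visually against control on a 0-9 scale after 4-5 weeks.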

[5] = test system: ORYSAT (Rice, Tebonnet); assay: Postemergence herbicidal evaluation; type: in vivo, Oryza sativa, (L.) Tebonnet; settings: postemergence
Procedure, shortened: as §1

[6] = test system: ORYSAT (Rice, Tebonnet); assay: Preemergence herbicidal evaluation; type: in vivo, Oryza sativa, (L.) Tebonnet; settings: rated 4-5 weeks after treatment
Procedure, shortened: as §3

[7] = test system: SETVI (Foxtail, Green); assay: Preemergence herbicidal evaluation; type: in vivo, Setaria viridis; settings: rated 4-5 weeks after treatment
Procedure, shortened: as §3

[8] = test system: MOOVA (Monochoria); assay: Preemergence weed control under flooded paddy conditions; type: in vivo, Monochoria vaginalis; settings: rated 3-4 weeks after treatment
Procedure, shortened: (§4)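 Values are visual 0-9 scores against a control for a preemergence application into paddy flood water at about 0.0313 to 0.500 kg/ha. Greenhouse duration was three to four weeks.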

[9] = test system: CHEAL (Lambsquarters, Common); assay: Postemergence herbicidal evaluation; type: in vivo, Chenopodium album; settings: postemergence
Procedure, shortened: as §1

[10] = test system: CYPIR (Rice Flatsedge); assay: Postemergence weed control under flooded paddy conditions; type: in vivo, Cyperus iria; settings: postemergence weeds, 3-4 weeks after treatment
Procedure, shortened: as §2

[11] = test system: CYPSE (Flatsedge); assay: Preemergence weed control under flooded paddy conditions; type: in vivo, Cyperus serotinus; settings: rated 3-4 weeks after treatment
Procedure, shortened: as §4

[12] = test system: CASOB (Sicklepod); assay: Postemergence herbicidal evaluation; type: in vivo, Cassia obtusifolia; settings: postemergence
Procedure, shortened: as §1

[13] = test system: CYPSE (Flatsedge); assay: Postemergence weed control under flooded paddy conditions; type: in vivo, Cyperus serotinus; settings: postemergence weeds, 3-4 weeks after treatment
Procedure, shortened: as §2

SMILES: CCC1SC(=Nc2cc(N3C(=O)C4=C(CCCC4)C3=O)c(F)cc2Cl)N(C)C1=O (centres unmarked) [Compound 6, N-{4-chloro-5-[(5-ethyl-3-methyl-4-oxo-2-thiazolidinylidene)amino]-2-fluorophenyl}-1-cyclohexene-1,2-dicarboximide]
- ZEAMX herbicidal rating ([1]; rate 0.0157 kg/ha): 3.0
- ZEAMX herbicidal rating ([1]; rate 0.0313 kg/ha): 3.5
- ZEAMX herbicidal rating ([1]; rate 0.0625 kg/ha): 3.5
- ZEAMX herbicidal rating ([1]; rate 0.1250 kg/ha): 3.5
- ZEAMX herbicidal rating ([1]; rate 0.2500 kg/ha): 3.5
- ZEAMX herbicidal rating ([1]; rate 0.5000 kg/ha): 4.0
- Herbicidal rating SAGPY ([2]; rate 0.0313 kg/ha): 0.0
- Herbicidal rating SAGPY ([2]; rate 0.0625 kg/ha): 0.0
- Herbicidal rating SAGPY ([2]; rate 0.1250 kg/ha): 0.0
- Herbicidal rating SAGPY ([2]; rate 0.2500 kg/ha): 0.0
- Herbicidal rating SAGPY ([2]; rate 0.5000 kg/ha): 0.0
- GALAP herbicidal rating ([3]; rate 0.0157 kg/ha): 0.0
- GALAP herbicidal rating ([3]; rate 0.0313 kg/ha): 0.0
- GALAP herbicidal rating ([3]; rate 0.0625 kg/ha): 0.0
- GALAP herbicidal rating ([3]; rate 0.1250 kg/ha): 2.0
- GALAP herbicidal rating ([3]; rate 0.2500 kg/ha): 7.0
- GALAP herbicidal rating ([3]; rate 0.5000 kg/ha): 9.0
- AMBEL preemergence herbicidal rating ([4]; rate 0.1250 kg/ha): 0.0
- AMBEL preemergence herbicidal rating ([4]; rate 0.2500 kg/ha): 0.0
- AMBEL preemergence herbicidal rating ([4]; rate 0.5000 kg/ha): 0.0
- ORYSAT herbicidal rating ([5]; rate 0.0157 kg/ha): 2.5
- ORYSAT herbicidal rating ([5]; rate 0.0313 kg/ha): 2.5
- ORYSAT herbicidal rating ([5]; rate 0.0625 kg/ha): 2.5
- ORYSAT herbicidal rating ([5]; rate 0.1250 kg/ha): 2.5
- ORYSAT herbicidal rating ([5]; rate 0.2500 kg/ha): 2.5
- ORYSAT herbicidal rating ([5]; rate 0.5000 kg/ha): 2.5
- ORYSAT preemergence herbicidal rating ([6]; rate 0.1250 kg/ha): 0.0
- ORYSAT preemergence herbicidal rating ([6]; rate 0.2500 kg/ha): 0.0
- ORYSAT preemergence herbicidal rating ([6]; rate 0.5000 kg/ha): 0.0
- SETVI preemergence herbicidal rating ([7]; rate 0.1250 kg/ha): 0.0
- SETVI preemergence herbicidal rating ([7]; rate 0.2500 kg/ha): 2.0
- Herbicidal rating MOOVA ([8]; 0.0313 kg/ha): 2.0
- Herbicidal rating MOOVA ([8]; 0.0625 kg/ha): 8.0
- Herbicidal rating MOOVA ([8]; 0.1250 kg/ha): 8.0
- Herbicidal rating MOOVA ([8]; 0.2500 kg/ha): 9.0
- Herbicidal rating MOOVA ([8]; 0.5000 kg/ha): 9.0
- CHEAL herbicidal rating ([9]; rate 0.0157 kg/ha): 0.0
- CHEAL herbicidal rating ([9]; rate 0.0313 kg/ha): 0.0
- CHEAL herbicidal rating ([9]; rate 0.0625 kg/ha): 2.0
- CHEAL herbicidal rating ([9]; rate 0.2500 kg/ha): 6.0
- CHEAL herbicidal rating ([9]; rate 0.5000 kg/ha): 9.0
- Herbicidal rating CYPIR ([10]; rate 0.0313 kg/ha): 0.0
- Herbicidal rating CYPIR ([10]; rate 0.0625 kg/ha): 1.0
- Herbicidal rating CYPIR ([10]; rate 0.1250 kg/ha): 2.0
- Herbicidal rating CYPIR ([10]; rate 0.2500 kg/ha): 3.0
- Herbicidal rating CYPIR ([10]; rate 0.5000 kg/ha): 3.5
- Herbicidal rating CYPSE ([11]; 0.0313 kg/ha): 0.0
- Herbicidal rating CYPSE ([11]; 0.0625 kg/ha): 0.0
- Herbicidal rating CYPSE ([11]; 0.1250 kg/ha): 0.0
- Herbicidal rating CYPSE ([11]; 0.2500 kg/ha): 0.0
- Herbicidal rating CYPSE ([11]; 0.5000 kg/ha): 0.0
- CASOB herbicidal rating ([12]; rate 0.0157 kg/ha): 0.0
- CASOB herbicidal rating ([12]; rate 0.0313 kg/ha): 0.0
- CASOB herbicidal rating ([12]; rate 0.0625 kg/ha): 0.0
- CASOB herbicidal rating ([12]; rate 0.1250 kg/ha): 0.0
- CASOB herbicidal rating ([12]; rate 0.2500 kg/ha): 2.0
- CASOB herbicidal rating ([12]; rate 0.5000 kg/ha): 6.0
- Herbicidal rating CYPSE ([13]; rate 0.0313 kg/ha): 0.0
- Herbicidal rating CYPSE ([13]; rate 0.0625 kg/ha): 0.0
- Herbicidal rating CYPSE ([13]; rate 0.1250 kg/ha): 0.0
- Herbicidal rating CYPSE ([13]; rate 0.2500 kg/ha): 0.0
- Herbicidal rating CYPSE ([13]; rate 0.5000 kg/ha): 0.0
